Our source for the Activity values is ChEMBL document CHEMBL1151840, “Synthetic oligoribonucleotides containing arabinonucleotides act as agonists of TLR7 and 8” (Bioorg Med Chem Lett, 2009).

Active and inactive are the calls of the source. The calls are words filed in the database; no cut-off is given here.

Assay [1] relates to PBMC. The assay can be described thus: Stimulation of immune response in human PBMC assessed as induction of IFN-gamma production at 150 ug/ml after 24 hrs. Type of assay: functional, cell-based.
Assay [2] concerns PBMC. Nature of the assay: Stimulation of immune response in human PBMC assessed as induction of MIP1beta production at 150 ug/ml after 24 hrs. Type of assay: functional, cell-based.
The species named for assay [3] is Homo sapiens. The assay can be described thus: Stimulation of immune response in human pDC assessed as induction of TNFalpha production at 150 ug/ml after 24 hrs. It counts as functional.
Assay [4] concerns PBMC. Nature of the assay: Stimulation of immune response in human PBMC assessed as induction of IFNalpha production at 150 ug/ml after 24 hrs. Type of assay: functional, cell-based.
Assay [5] is filed under the species Homo sapiens. The assay can be described thus: Stimulation of immune response in human pDC assessed as induction of IFNalpha production at 150 ug/ml after 24 hrs. It counts as functional.
The target of assay [6] is T1, Toll-like receptor 8 (Homo sapiens) (UniProt Q9NR97).
T1 sequence (whole entry): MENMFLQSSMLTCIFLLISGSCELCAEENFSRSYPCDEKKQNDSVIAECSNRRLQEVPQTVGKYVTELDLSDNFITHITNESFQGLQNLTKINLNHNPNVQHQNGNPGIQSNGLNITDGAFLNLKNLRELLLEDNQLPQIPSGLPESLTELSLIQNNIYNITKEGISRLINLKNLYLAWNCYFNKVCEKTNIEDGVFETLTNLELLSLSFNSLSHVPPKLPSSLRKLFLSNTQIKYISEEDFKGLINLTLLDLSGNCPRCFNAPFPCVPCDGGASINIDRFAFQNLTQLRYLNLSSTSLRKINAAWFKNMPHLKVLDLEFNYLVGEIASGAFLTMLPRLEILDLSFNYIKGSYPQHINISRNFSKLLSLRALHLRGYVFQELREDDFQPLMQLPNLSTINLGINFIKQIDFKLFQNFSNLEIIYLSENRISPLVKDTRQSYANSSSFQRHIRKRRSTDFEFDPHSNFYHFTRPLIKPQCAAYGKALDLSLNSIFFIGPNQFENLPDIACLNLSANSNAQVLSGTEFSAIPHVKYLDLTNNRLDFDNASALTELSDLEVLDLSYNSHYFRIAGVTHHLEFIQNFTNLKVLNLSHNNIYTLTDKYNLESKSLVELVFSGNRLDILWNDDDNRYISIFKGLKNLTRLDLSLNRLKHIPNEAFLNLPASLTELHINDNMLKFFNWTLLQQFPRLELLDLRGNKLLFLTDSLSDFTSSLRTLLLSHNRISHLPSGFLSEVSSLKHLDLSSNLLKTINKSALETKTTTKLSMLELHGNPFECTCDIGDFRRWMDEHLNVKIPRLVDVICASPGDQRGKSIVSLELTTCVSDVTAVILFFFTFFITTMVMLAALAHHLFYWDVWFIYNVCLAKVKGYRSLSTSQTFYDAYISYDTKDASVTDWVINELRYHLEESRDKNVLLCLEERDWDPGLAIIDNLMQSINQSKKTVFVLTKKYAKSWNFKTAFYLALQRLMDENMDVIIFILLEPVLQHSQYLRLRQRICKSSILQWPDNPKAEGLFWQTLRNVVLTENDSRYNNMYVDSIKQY
Nature of the assay: Agonist activity at human TLR8 expressed in HEK293XL cells assessed as NF-kappaB activation after 18 hrs. Type of assay: functional, cell-based.

The subject of a further assay is Mus musculus. Nature of the assay: Stimulation of immune response in C57BL/6 mouse assessed as induction of serum IL12 production at 50 mg/kg, sc after 2 hrs by luminex multiplex assay. Type of assay: functional, organism-based. On the set-up: dose 50 mg/kg.
Assay [7] deals with PBMC. The assay can be described thus: Stimulation of immune response in human PBMC assessed as induction of IL1-beta production at 150 ug/ml after 24 hrs. Type of assay: functional, cell-based.
In assay [8] the test system is PBMC. Nature of the assay: Stimulation of immune response in human PBMC assessed as induction of TNFalpha production at 150 ug/ml after 24 hrs. It counts as functional, cell-based.
In assay [9] the test system is PBMC. The assay can be described thus: Stimulation of immune response in human PBMC assessed as induction of IL2R level at 150 ug/ml after 24 hrs. Type of assay: functional, cell-based.
Assay [10] is filed under the species Homo sapiens. Nature of the assay: Stimulation of immune response in human pDC assessed as induction of MIP1alpha production at 150 ug/ml after 24 hrs. It counts as functional.
The species entered for assay [11] is Homo sapiens. Nature of the assay: Stimulation of immune response in human pDC assessed as induction of IL12 production at 150 ug/ml after 24 hrs. Type of assay: functional.
In assay [12] the target is T2, Toll-like receptor 7 (Homo sapiens) (UniProt Q9NYK1).
T2 sequence (whole entry): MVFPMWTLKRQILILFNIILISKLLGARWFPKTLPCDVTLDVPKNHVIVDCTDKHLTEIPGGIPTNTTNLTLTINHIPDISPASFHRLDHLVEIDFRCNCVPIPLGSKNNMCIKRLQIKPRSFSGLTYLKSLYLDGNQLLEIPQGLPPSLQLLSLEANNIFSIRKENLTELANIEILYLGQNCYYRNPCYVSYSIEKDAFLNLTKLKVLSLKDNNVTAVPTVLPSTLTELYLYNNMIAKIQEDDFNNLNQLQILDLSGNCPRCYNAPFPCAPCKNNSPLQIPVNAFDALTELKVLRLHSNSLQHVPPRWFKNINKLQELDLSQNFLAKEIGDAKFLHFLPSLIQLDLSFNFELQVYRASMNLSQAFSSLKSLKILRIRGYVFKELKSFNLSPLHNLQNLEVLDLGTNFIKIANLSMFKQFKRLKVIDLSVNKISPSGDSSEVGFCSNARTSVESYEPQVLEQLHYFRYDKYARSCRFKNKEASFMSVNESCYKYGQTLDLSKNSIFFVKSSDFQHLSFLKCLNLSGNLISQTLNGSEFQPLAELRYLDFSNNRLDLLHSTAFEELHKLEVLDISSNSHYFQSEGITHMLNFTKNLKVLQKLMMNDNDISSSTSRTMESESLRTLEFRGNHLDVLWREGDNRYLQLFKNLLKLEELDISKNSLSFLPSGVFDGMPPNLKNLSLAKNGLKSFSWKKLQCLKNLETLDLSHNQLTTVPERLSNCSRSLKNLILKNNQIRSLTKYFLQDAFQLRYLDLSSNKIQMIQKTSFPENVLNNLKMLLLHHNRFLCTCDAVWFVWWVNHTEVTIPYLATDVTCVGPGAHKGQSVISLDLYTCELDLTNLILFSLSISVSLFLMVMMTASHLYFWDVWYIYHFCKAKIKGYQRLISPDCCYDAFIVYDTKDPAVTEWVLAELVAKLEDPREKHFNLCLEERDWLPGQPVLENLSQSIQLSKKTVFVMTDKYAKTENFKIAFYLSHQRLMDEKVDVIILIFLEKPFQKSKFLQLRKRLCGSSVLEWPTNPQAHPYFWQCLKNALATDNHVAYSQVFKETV
Nature of the assay: Agonist activity at human TLR7 expressed in HEK293XL cells assessed as NF-kappaB activation at 300 ug/ml after 18 hrs. Type of assay: functional, cell-based.

In assay [13] the test system is PBMC. Nature of the assay: Stimulation of immune response in human PBMC assessed as induction of IL8 production at 150 ug/ml after 24 hrs. It counts as functional, cell-based.
The subject of assay [14] is PBMC. Nature of the assay: Stimulation of immune response in human PBMC assessed as induction of RANTES production at 150 ug/ml after 24 hrs. Type of assay: functional, cell-based.
For assay [15], the system named is PBMC. Nature of the assay: Stimulation of immune response in human PBMC assessed as induction of MIP1alpha production at 150 ug/ml after 24 hrs. Type of assay: functional, cell-based.
The species entered for assay [16] is Homo sapiens. Nature of the assay: Stimulation of immune response in human pDC assessed as induction of IFN-gamma production at 150 ug/ml after 24 hrs. It counts as functional.
Assay [17] concerns PBMC. The assay can be described thus: Stimulation of immune response in human PBMC assessed as induction of MCP1 production at 150 ug/ml after 24 hrs. It counts as functional, cell-based.
Assay [18] has as its system PBMC. Nature of the assay: Stimulation of immune response in human PBMC assessed as induction of IL12 production at 150 ug/ml after 24 hrs. Type of assay: functional, cell-based.
For assay [19], the species on record is Homo sapiens. Nature of the assay: Stimulation of immune response in human pDC assessed as induction of MIP1beta production at 150 ug/ml after 24 hrs. Type of assay: functional.
Assay [20] relates to PBMC. Nature of the assay: Stimulation of immune response in human PBMC assessed as induction of IL10 production at 150 ug/ml after 24 hrs. It counts as functional, cell-based.

For `Nc1ccn([C@@H]2O[C@H](COP(=O)(S)O[C@H]3[C@@H](O)[C@H](n4cnc5c(N)ncnc54)O[C@@H]3COP(=O)(S)O[C@H]3[C@@H](O)[C@H](n4cnc5c(=O)[nH]c(N)nc54)O[C@@H]3COP(=O)(S)O[C@H]3[C@@H](O)[C@H](n4ccc(=O)[nH]c4=O)O[C@@H]3COP(=O)(S)O[C@H]3[C@@H](O)[C@H](n4cnc5c(=O)[nH]c(N)nc54)O[C@@H]3COP(=O)(S)O[C@H]3[C@@H](O)[C@H](n4ccc(=O)[nH]c4=O)O[C@@H]3COP(=O)(S)O[C@H]3[C@@H](O)[C@H](n4cnc5c(=O)[nH]c(N)nc54)O[C@@H]3COP(=O)(S)O[C@H]3[C@@H](O)[C@H](n4ccc(=O)[nH]c4=O)O[C@@H]3COP(=O)(S)O[C@H]3[C@@H](O)[C@H](n4ccc(=O)[nH]c4=O)O[C@@H]3COP(=O)(S)O[C@H]3[C@@H](O)[C@H](n4cnc5c(=O)[nH]c(N)nc54)O[C@@H]3COP(=O)(S)O[C@H]3[C@@H](O)[C@H](n4ccc(=O)[nH]c4=O)O[C@H]3CO)[C@@H](OP(=O)(S)OCC(O)COP(=O)(S)O[C@H]3[C@@H](O)[C@H](n4ccc(N)nc4=O)O[C@@H]3COP(=O)(S)O[C@H]3[C@@H](O)[C@H](n4cnc5c(N)ncnc54)O[C@@H]3COP(=O)(S)O[C@H]3[C@@H](O)[C@H](n4cnc5c(=O)[nH]c(N)nc54)O[C@@H]3COP(=O)(S)O[C@H]3[C@@H](O)[C@H](n4ccc(=O)[nH]c4=O)O[C@@H]3COP(=O)(S)O[C@H]3[C@@H](O)[C@H](n4cnc5c(=O)[nH]c(N)nc54)O[C@@H]3COP(=O)(S)O[C@H]3[C@@H](O)[C@H](n4ccc(=O)[nH]c4=O)O[C@@H]3COP(=O)(S)O[C@H]3[C@@H](O)[C@H](n4cnc5c(=O)[nH]c(N)nc54)O[C@@H]3COP(=O)(S)O[C@H]3[C@@H](O)[C@H](n4ccc(=O)[nH]c4=O)O[C@@H]3COP(=O)(S)O[C@H]3[C@@H](O)[C@H](n4ccc(=O)[nH]c4=O)O[C@@H]3COP(=O)(S)O[C@H]3[C@@H](O)[C@H](n4cnc5c(=O)[nH]c(N)nc54)O[C@@H]3COP(=O)(S)O[C@H]3[C@@H](O)[C@H](n4ccc(=O)[nH]c4=O)O[C@@H]3CO)[C@H]2O)c(=O)n1` (stereo in doubt; 6), the outcome in the assay with PBMC [1], with PBMC [2], in the assay filed under Homo sapiens [3], in the assay with PBMC [4], in the assay on PBMC [7] and with PBMC [8] was Active. For the same compound, the outcome in the assay with PBMC [9], in the assay listed under Homo sapiens [10], in the assay filed under Homo sapiens [11], with PBMC [13], with PBMC [14] and in the assay on PBMC [15] was Active. The result in the assay listed under Homo sapiens [16], in the assay on PBMC [17], in the assay on PBMC [18], in the assay filed under Homo sapiens [19] and in the assay with PBMC [20] was Active. Further, the outcome (in the assay listed under Homo sapiens [5]; in the assay on Mus musculus; in assay [12]) was inactive. Also, the Activity entry in [6] is “Dose-dependent effect”.
